In ChEMBL document CHEMBL1132880, “Novel arylpiperazines as selective alpha1-adrenergic receptor antagonists” (Bioorg Med Chem Lett, 2000):

Assays:
[1] = target: Alpha adrenergic receptor (1a and 1d) (Homo sapiens) (UniProt P35348+P25100); experiment: Relative binding affinity for human adrenergic receptor alpha 1d and 1a; type: protein assay
[2] = target: Adrenergic receptors; alpha-1 A & B (Homo sapiens) (UniProt P35348+P35368); experiment: Relative binding affinity for human adrenergic receptor alpha 1b and alpha 1a; type: protein assay
[3] = target: T1, Alpha-1B adrenergic receptor (Homo sapiens, UniProt P35368); experiment: Binding affinity for human Alpha-1B adrenergic receptor expressed in COS cell membranes
T1 sequence (P35368 whole entry): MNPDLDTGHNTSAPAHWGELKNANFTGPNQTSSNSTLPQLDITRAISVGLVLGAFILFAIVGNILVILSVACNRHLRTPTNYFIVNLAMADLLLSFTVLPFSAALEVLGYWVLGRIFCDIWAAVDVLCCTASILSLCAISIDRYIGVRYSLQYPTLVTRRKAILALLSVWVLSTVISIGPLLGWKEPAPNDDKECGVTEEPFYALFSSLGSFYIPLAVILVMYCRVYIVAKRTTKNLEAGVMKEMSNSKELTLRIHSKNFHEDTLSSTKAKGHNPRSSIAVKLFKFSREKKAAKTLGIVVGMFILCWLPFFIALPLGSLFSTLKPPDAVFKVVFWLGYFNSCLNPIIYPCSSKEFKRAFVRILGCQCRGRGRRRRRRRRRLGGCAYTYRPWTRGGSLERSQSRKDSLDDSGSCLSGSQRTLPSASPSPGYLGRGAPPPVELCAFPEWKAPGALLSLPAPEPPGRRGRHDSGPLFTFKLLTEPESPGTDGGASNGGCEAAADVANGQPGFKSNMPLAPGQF

[4] = target: T2, Alpha-1D adrenergic receptor (Homo sapiens, UniProt P25100); experiment: Binding affinity for human Alpha-1D adrenergic receptor expressed in COS cell membranes
T2 sequence (P25100 whole entry): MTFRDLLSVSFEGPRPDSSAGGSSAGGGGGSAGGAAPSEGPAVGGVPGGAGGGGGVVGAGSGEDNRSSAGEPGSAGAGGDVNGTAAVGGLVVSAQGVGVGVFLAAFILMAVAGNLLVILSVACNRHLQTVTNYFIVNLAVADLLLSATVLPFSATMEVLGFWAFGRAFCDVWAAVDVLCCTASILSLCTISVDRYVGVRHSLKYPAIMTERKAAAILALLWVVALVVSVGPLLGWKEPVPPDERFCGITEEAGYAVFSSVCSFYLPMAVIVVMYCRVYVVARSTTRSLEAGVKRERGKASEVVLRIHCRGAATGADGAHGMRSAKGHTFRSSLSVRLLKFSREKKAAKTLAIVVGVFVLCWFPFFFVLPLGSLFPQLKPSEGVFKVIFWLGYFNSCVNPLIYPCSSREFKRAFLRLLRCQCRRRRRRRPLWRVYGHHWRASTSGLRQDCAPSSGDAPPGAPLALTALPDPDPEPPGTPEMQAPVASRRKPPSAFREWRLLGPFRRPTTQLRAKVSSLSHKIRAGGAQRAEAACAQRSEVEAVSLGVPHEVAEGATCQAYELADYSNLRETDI

[5] = target: T3, Alpha-1A adrenergic receptor (Homo sapiens, UniProt P35348); experiment: Binding affinity for human Alpha-1A adrenergic receptor expressed in COS cell membranes
T3 sequence (P35348 whole entry): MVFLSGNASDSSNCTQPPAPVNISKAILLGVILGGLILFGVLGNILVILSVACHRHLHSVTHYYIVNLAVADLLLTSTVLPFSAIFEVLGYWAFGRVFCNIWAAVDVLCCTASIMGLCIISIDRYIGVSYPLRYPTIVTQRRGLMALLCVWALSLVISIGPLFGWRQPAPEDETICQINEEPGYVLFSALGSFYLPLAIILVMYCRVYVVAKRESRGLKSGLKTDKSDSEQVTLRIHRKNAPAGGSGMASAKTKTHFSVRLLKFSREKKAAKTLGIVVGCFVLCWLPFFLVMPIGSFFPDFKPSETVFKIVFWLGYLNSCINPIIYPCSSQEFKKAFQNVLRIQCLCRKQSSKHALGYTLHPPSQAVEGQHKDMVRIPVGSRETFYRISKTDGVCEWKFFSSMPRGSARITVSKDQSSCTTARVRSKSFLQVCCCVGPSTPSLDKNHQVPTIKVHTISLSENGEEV

Rattus norvegicus = species on record: Rattus norvegicus; experiment: pA2 data of Compound was evaluated for tissue contractions in isolated rat prostatic tissue strips.; type: functional; settings: read-out: pA2 (converted)

SMILES	Ratio [1]	Ratio [2]	Ki [3] [nM]	Ki [4] [nM]	Ki [5] [nM]	Kb (Rattus norvegicus) [nM]
O=C(CN1CCCCC1=O)NCCN1CCN(c2ccc(F)cc2OCC(F)(F)F)CC1	41	77	10000	5350	129	
CC(C)Oc1ccccc1N1CCN(CCNC(=O)CN2CCCCC2=O)CC1 [RWJ-38063]	43	5300	46100	372	8.7	31.6
CC(C)Oc1ccccc1N1CCN(CC(O)CC(=O)CN2CCCCC2=O)CC1 (stereo not drawn)	9	556	10000	253	28	
CC(C)Oc1cc(F)ccc1N1CCN(CCNC(=O)CN2CCCCC2=O)CC1	54	120	10000	4500	83	
CC(C)Oc1ccccc1N1CCN(CCOC(=O)CN2CCCCC2=O)CC1	3	59	2240	108	38	
COc1ccccc1N1CCN(CCCNC(=O)CN2CCCCC2=O)CC1	102	102	10000	10000	98	
CC(C)Oc1ccccc1N1CCN(C/C=C/C(=O)CN2CCCCC2=O)CC1	33	295	5320	602	18	
CCOC(=O)C1CCC(=O)N1CC(=O)NCCN1CCN(c2ccccc2OC(C)C)CC1 (stereo not drawn)	13	1320	26300	260	20	16.2
CC(C)Oc1ccccc1N1CCN(CC(=O)CC(=O)CN2CCCCC2=O)CC1	14	24	10000	6040	417	
CC(C)Oc1ccccc1N1CCN(CCN(C)C(=O)CN2CCCCC2=O)CC1	12	187	10000	650	53	
CC(C)Oc1ccccc1N1CCN(CCNC(=O)CN2CCCCCC2=O)CC1 [RWJ-68157]	28	196	3540	505	18	204
CC(C)Oc1ccccc1N1CCN(CCCNC(=O)CN2CCCCC2=O)CC1 [RWJ-69736]	121	15200	10000	80	0.66	
